From patent WO2016087994A1, “Btk inhibitors to treat solid tumors through modulation of the tumor microenvironment” (dated 2016)
pEC50, pIC50: −log10 of the molar value. Entries after “also recorded” stand apart in the source; their conditions may differ. Like-named read-outs stand apart in the source and are kept apart here.

Tests used:
CD8 + T cells [1] = experiment: CD8+ T cell IFN-γ levels; type: cell-based; details: relative to vehicle
CD8 + T cells [2] = experiment: CD8+ T cell viability; type: cell-based; details: higher concentrations of ibrutinib; any concentration of Formula (II)
[3] = system: GPVI platelet aggregation; experiment: GPVI (convulxin-induced) human platelet aggregation; type: cell-based
[4] = Respiratory function study; type: in vivo, rats; details: doses through 300 mg/kg
[5] = system: KPC pancreatic tumors (KRAS, p53); experiment: KPC genetic pancreatic cancer model; type: in vivo, mouse
[6] = Functional observation battery; type: in vivo, rats; details: doses through 300 mg/kg
[7] = system: NK cells with trastuzumab-coated HER18 breast cancer cells; experiment: Trastuzumab-dependent NK cell IFN-γ secretion; type: cell-based, human; details: trastuzumab-stimulated
CD4 + T cells = experiment: Th17 and Treg development of CD4+ T cells; type: cell-based
[8] = Glutathione binding in vitro; type: in vitro ADME
[9] = system: KPC derived mouse pancreatic cancer cells; experiment: KPC-derived mouse pancreatic cancer cells injected into pancreas, Formula (II) and/or gemcitabine; type: in vivo; details: Formula (II) 15 mg/kg/BID oral; gemcitabine 15 mg/kg IV every 4 days x3
[10] = system: KrasG12D;Trp53R172H;Pdx1-Cre (KPC) derived pancreatic tumor; experiment: Orthotopic pancreatic cancer model (KPC-derived cell line); type: in vivo, C57BL/6 mice; details: oral 15 mg/kg
[11] = system: NK cells (CD56+/CD107a+) with MEC-1 cells; experiment: Obinutuzumab-stimulated NK cell degranulation in whole blood; type: cell-based, human; details: obinutuzumab 1 μg/mL; 0.1, 1, 10 μM
A3 adenosine receptor = A3 adenosine receptor (Homo sapiens, UniProt P0DMS8)
A3 adenosine receptor, sequence (P0DMS8 whole entry): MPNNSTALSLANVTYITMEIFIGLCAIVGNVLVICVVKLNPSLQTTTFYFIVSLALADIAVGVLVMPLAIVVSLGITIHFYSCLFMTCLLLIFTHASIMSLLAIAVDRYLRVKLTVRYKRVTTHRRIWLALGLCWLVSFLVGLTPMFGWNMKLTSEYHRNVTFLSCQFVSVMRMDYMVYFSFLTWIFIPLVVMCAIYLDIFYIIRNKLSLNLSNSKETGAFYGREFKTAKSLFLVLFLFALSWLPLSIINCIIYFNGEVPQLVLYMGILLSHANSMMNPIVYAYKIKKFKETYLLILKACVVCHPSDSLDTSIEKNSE

relapsed/refractory CLL = experiment: Clinical study of Formula (II) in relapsed/refractory CLL
KrasLA2 NSCLC tumors = experiment: KrasLA2 genetic NSCLC model; type: in vivo, mouse
CYP3A4 = CYP3A4 (Homo sapiens, UniProt P08684); experiment: CYP metabolism (loss of parent drug); type: in vitro ADME; details: in vitro
CYP3A4, sequence (P08684 whole entry): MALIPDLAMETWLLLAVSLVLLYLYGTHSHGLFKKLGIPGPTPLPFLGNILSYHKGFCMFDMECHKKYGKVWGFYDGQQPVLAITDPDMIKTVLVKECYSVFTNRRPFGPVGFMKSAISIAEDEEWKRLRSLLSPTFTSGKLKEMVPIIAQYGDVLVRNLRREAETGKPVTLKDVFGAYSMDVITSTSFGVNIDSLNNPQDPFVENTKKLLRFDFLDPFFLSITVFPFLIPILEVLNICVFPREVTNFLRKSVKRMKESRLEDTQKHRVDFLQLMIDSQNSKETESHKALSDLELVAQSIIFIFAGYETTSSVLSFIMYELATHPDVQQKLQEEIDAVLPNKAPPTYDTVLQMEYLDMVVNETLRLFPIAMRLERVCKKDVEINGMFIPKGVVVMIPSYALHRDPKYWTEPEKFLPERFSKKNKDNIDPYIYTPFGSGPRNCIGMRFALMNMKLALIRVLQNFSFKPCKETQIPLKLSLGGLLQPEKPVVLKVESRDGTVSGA

BTK = target: T1, BTK (Mus musculus, UniProt P35991); experiment: BTK occupancy in MDSCs of tumor bearing PDA mice; type: in vivo; details: 15 mg/kg BID, Day 8, 4 hours post dose, N=5
T1 construct: MDSCs were purified from tumor bearing PDA mice; from tissue; host or cells: granulocytic and monocytic MDSCs from tumor-bearing PDA mice
T1 sequence (P35991 whole entry): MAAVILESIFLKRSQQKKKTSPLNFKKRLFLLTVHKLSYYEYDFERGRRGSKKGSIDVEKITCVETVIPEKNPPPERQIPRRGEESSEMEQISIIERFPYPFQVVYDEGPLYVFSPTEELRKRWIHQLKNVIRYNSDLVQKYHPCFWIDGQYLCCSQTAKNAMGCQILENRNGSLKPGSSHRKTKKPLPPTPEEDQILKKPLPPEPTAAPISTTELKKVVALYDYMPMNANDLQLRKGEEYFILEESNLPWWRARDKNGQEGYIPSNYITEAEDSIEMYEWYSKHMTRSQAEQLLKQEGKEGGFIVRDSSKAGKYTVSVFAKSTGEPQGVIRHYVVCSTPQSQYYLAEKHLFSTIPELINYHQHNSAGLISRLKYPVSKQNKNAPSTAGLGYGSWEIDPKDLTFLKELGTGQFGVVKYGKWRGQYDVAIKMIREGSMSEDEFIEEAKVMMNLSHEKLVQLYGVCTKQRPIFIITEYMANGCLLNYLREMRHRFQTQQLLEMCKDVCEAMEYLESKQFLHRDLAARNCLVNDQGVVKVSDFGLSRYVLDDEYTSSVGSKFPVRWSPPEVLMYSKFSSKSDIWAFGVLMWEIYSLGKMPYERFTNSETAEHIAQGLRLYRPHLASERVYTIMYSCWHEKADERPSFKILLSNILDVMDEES

[12] = system: human platelet-mediated thrombosis; experiment: In vivo human platelet thrombus formation after laser injury in VWF HA1 mice; set-up: species or system human platelets in VWF HA1 mice
hepatocytes = experiment: Metabolism in hepatocytes with 14C-labeled Formula (II); type: in vitro ADME, mouse, rat, dog, rabbit, monkey, and human
[13] = Brain and CSF pharmacokinetics in Sprague-Dawley rats; type: in vivo; details: rat
CYP enzymes = experiment: Nonclinical CYP interaction studies; type: in vitro ADME
[14] = system: NK cells with trastuzumab-coated HER18 breast cancer cells; experiment: Trastuzumab-dependent NK cell degranulation (CD107a); type: cell-based, human; details: trastuzumab-stimulated
[15] = system: EGF receptor phosphorylation (p-EGFR), A431 cells; experiment: In vitro EGFR phosphorylation in A431 cells; type: cell-based, human; details: 10 μM
[16] = system: PBMC subsets (MDSC, NK cells); experiment: Peripheral blood cell subsets in CLL patients by flow cytometry; type: in vivo, human; details: C1D28, C2D28
ID8 ovarian cancer = experiment: ID8 syngeneic orthotopic ovarian cancer model; type: in vivo, mouse; details: 15 mg/kg/BID oral
CXCL12 and CCL2 = experiment: Plasma chemokines in treated CLL patients; type: in vivo, human
[17] = system: NK cells with rituximab-coated DHL4 lymphoma cells; experiment: Rituximab-dependent NK cell degranulation (CD107a); type: cell-based, human
apoptotic B-CLL = experiment: Apoptosis of B-CLL cells in treated CLL patients; type: in vivo, human
[18] = In vivo metabolism in plasma, bile and urine; set-up: species or system rats, dogs, and monkeys; details: bile, urine, preliminary
[19] = system: rituximab-coated Raji cells; experiment: Rituximab ADCC, chromium release, Raji targets; type: cell-based, human; details: 1 μM; healthy donor NK cells / Raji
[20] = Cardiovascular function study in telemeterized dogs; type: in vivo, male beagle dogs; details: single doses through 30 mg/kg
[21] = system: B cell receptor (CD69 on CD19+ B cells); experiment: Inhibition of BCR signaling (CD69) on B cells in whole blood; type: cell-based; details: Homo sapiens, 18 h
Itk kinase = target: T2, Itk kinase (Homo sapiens, UniProt Q08881); experiment: Kinome screen, Itk; type: biochemical; details: see Table 2 (missing)
T2 construct: Life Technologies (performed the screen, or the value is from the literature)
T2 sequence (Q08881 whole entry): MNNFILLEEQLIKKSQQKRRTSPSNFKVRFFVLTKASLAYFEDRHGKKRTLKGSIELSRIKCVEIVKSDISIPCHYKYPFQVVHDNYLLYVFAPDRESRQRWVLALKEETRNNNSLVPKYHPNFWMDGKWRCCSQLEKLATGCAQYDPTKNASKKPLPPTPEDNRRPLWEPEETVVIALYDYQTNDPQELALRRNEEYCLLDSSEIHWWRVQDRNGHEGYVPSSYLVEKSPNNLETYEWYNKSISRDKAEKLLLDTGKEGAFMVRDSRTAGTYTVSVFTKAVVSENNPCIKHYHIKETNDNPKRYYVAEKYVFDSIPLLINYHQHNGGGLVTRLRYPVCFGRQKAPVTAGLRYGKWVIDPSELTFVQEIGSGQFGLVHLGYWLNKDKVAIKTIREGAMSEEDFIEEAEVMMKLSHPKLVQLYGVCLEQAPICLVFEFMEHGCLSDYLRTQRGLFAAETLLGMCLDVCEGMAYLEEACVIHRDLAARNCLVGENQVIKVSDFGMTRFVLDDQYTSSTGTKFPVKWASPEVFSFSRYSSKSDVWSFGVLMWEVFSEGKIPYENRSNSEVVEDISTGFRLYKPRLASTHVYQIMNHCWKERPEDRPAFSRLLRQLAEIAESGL

[22] = system: CD8 + T cells with B lymphoblast targets; experiment: Cytotoxic T cell (CTL) assay; type: cell-based; details: 500 nM, relative to vehicle
primary CLL cells = experiment: Rituximab ADCC, chromium release, primary CLL targets; type: cell-based, human; details: 1 μM; NK cells from CLL patients, autologous CLL cells

CC#CC(=O)N1CCC[C@H]1c1nc(-c2ccc(C(=O)Nc3ccccn3)cc2)c2c(N)nccn12 [Formula (II), (<S)-4-(8-amino-3-(l-(but-2-ynoyl)pyrrolidin-2-yl)imidazo[l,5-a]pyrazin-l-yl)-N-(pyridin-2-yl)benzamide]
CD8+ T cell function as IFN-γ level (in words) (CD8 + T cells [1]): no effect on CD8 + T cell function | CD8+ T cell viability (in words) (CD8 + T cells [2]): not observed | inhibition of GPVI platelet aggregation (in words) [3]: does not | pIC50 ([3]; Homo sapiens, Platelet, read-out: IC50, GPVI platelet aggregation): 5.94 | respiratory function (in words) [4]: no treatment-related adverse effects | survival at day 14 ([5]; 15 mg/kg BID oral): 6/6 | survival at day 28 ([5]; 15 mg/kg BID oral): 5/6 | tumor growth and survival (in words) ([5]; 15 mg/kg BID oral, combination with gemcitabine 50 mg/kg IV): substantially slowed pancreatic cancer growth and increased animal survival; also recorded: compared favorably with gemcitabine alone | tumor volume, day 28, average ([5]; 15 mg/kg BID oral, predose 165): 272 mm3 | CD8+ cells (in words) ([5]; tumor tissue): significant increase in CD8 + cells | MDSCs (Gr1+Ly6CHi) (in words) ([5]; tumor tissue): significantly reduced | TAMs (CD11b+Ly6ClowF4/80+Csf1r+) (in words) ([5]; tumor tissue): significantly reduced | Tregs (CD4+CD25+FoxP3+) (in words) ([5]; tumor tissue): significantly reduced | neurobehavioral effects / body temperature (in words) [6]: no adverse effects on neurobehavioral effects or body temperature | NK cell cytokine release (in words) [7]: no inhibitory effect | Th17 development (in words) (CD4 + T cells): no adverse effects | Treg development (in words) (CD4 + T cells): no adverse effects | glutathione binding (in words) [8]: binds to glutathione but does not deplete glutathione | reduction in tumor size (in words) [9]: efficacy alone | immature myeloid infiltrate (in words) [10]: decreased immature myeloid infiltrate | immunosuppressive tumor associated myeloid cells and Tregs (in words) [10]: reduce immunosuppressive tumor associated myeloid cells and Tregs | number of Tregs (in words) [10]: reduced the number of immunospressive Tregs | number of tumor associated macrophages (in words) [10]: reduced the number of tumor associated macrophages | tumor burden (in words) [10]: significantly reduced tumor burden | tumor volume (in words) ([10]; vs vehicle): statistically significant reductions in tumor volume | obinutuzumab-stimulated NK cell degranulation (in words) [11]: minimal effect | activity in 80-target binding screen (in words) (A3 adenosine receptor): significant activity only against the A3 adenosine receptor | time to same median % change in SPD (relapsed/refractory CLL; CLL, compared with ibrutinib): 7 months | SPD change vs ibrutinib (in words) (relapsed/refractory CLL; FIG. 37): decreases more rapidly | absolute lymphocyte count (ALC) change vs ibrutinib (in words) (relapsed/refractory CLL; FIG. 37): much smaller relative increase and much faster decrease in absolute lymphocyte count (ALC) | adverse event grade (in words) (relapsed/refractory CLL; human, in vivo): only grade 1 AEs were observed | disease progression in 17p deletion patients (in words) (relapsed/refractory CLL; human, in vivo): no 17p patients have progressed | dose-limiting toxicities (in words) (relapsed/refractory CLL; human, in vivo): No DLTs were observed; also recorded: has not demonstrated any DLTs to date | lymphocytosis (in words) (relapsed/refractory CLL; human, in vivo): A lack of lymphocytosis | treatment-related serious adverse events (in words) (relapsed/refractory CLL; human, in vivo): No treatment-related serious adverse events (SAEs) were observed | number of tumors (in words) (KrasLA2 NSCLC tumors; 15 mg/kg): fewer overall tumors | tumor volumes vs vehicle (in words) (KrasLA2 NSCLC tumors; 15 mg/kg): significant decrease in tumor volumes | MDSCs (in words) (KrasLA2 NSCLC tumors; mouse, in vivo): significant reduction in immunosuppressive tumor associated MDSCs | TAMs (in words) (KrasLA2 NSCLC tumors; mouse, in vivo): significant reduction in immunosuppressive tumor associated TAMs | Tregs (in words) (KrasLA2 NSCLC tumors; mouse, in vivo): significant reduction in immunosuppressive tumor associated Tregs | CYP metabolism (in words) (CYP3A4): metabolized by CYP3A4 | BTK occupancy in granulocytic and monocytic MDSC (in words) (BTK): Complete BTK occupancy | effect on thrombus formation (in words) [12]: does not interfere with thrombus formation; also recorded: no significant effect on human platelet-mediated thrombus formation | metabolites in hepatocytes (in words) (hepatocytes): two mono-oxidized metabolites and a glutathione conjugate; also recorded: No unique human metabolite was identified | Kp at 0.5 h ([13]; brain, flushed brains, 5 or 30 mg/kg/day oral gavage, 30 min after dosing, read-out: brain concentration relative to matched plasma): 0.03 to 0.04 | Kp at 0.5 h ([13]; csf, 5 and 30 mg/kg/day oral gavage, read-out: CSF concentration relative to plasma): 0.01 to 0.02 | levels in brain and CSF (in words) ([13]; in vivo): crosses the blood-brain barrier; also recorded: low but detectable levels | CYP drug-drug interaction potential (in words) (CYP enzymes): very unlikely to cause clinical drug-drug interactions | NK cell degranulation (in words) [14]: no inhibitory effect | inhibition of EGFR phosphorylation (in words) ([15]; A431): no inhibition | EGF-induced p-EGFR inhibition ([15]; 2 h, EGF 100 ng/mL 5 min): 7% | MDSC (monocytic) change vs ALC (in words) [16]: patients with decreasing ALC % had increasing MDSC (monocytic) % | NK cell change vs ALC (in words) [16]: patients with decreasing ALC % had increasing NK cell % | B cells (in words) (ID8 ovarian cancer): significant reduction in total B cells; also recorded: significant reduction in immunosuppressive B cells | B regulatory cells (Bregs) (in words) (ID8 ovarian cancer): significant reduction in B regulatory cells (Bregs) | CD8+ T cells (in words) (ID8 ovarian cancer): increase in CD8 + T cells | ID8 ovarian cancer growth (in words) (ID8 ovarian cancer): impairs ID8 ovarian cancer growth | tumor associated Tregs (in words) (ID8 ovarian cancer): significant reduction in immunosuppressive tumor associated Tregs | tumor-associated lymphocytes (in words) (ID8 ovarian cancer): significant reduction in immunosuppressive tumor-associated lymphocytes | CCL2 levels (in words) (CXCL12 and CCL2): significant decrease | CXCL12 levels (in words) (CXCL12 and CCL2): significant decrease | reduction of NK cell degranulation ([17]; rituximab-stimulated, 240 min): < 2% | NK cell degranulation (in words) ([17]; rituximab, Formula (II) 1 μM): did not inhibit | samples with baseline change in apoptosis greater than 25% (apoptotic B-CLL; cleaved PARP+, Caspase 3+, CD19+, CD5+): 82 % of samples | apoptosis of B-CLL (in words) (apoptotic B-CLL; human, in vivo): increased apoptotis | metabolic processes in vivo (in words) [18]: oxidation, glutathione binding, and hydrolysis | inhibition of rituximab ADCC (in words) [19]: not inhibited | cardiovascular/ECG/body temperature (in words) [20]: no meaningful changes in body temperature, cardiovascular, or electrocardiographic (ECG) (including QT interval) parameters | pEC50 [21]: 8.09 | inhibition of Itk (in words) (Itk kinase): not a potent inhibitor of Itk kinase | CD8+ T cell function as % cytotoxicity (in words) [22]: no effect on CD8 + T cell function | inhibition of rituximab ADCC (in words) (primary CLL cells): not inhibited
